Source: publication PMC10461823, “ABCH2 transporter mediates deltamethrin uptake and toxicity in the malaria vector Anopheles coluzzii” (PLOS Pathogens, 2023)

Tests used:
ABCH2 [1] = molecular target: T1, ABCH2 (Anopheles coluzzii, UniProt A0A6E8VHH0); experiment: malachite green ATPase assay, Sf9 inverted membrane vesicles; type: biochemical; conditions: basal activity without deltamethrin, 1 mM ATP, MgCl2, Tris pH 8, 37 C, 15 min; empty-bacmid background subtracted
T1 construct: full ORF, codon-optimised for S. frugiperda, pFastBac1 baculovirus in Sf9 cells, untagged, membrane vesicles; about 85 kDa half-transporter, proposed homodimer
T1 sequence (A0A6E8VHH0 1-760): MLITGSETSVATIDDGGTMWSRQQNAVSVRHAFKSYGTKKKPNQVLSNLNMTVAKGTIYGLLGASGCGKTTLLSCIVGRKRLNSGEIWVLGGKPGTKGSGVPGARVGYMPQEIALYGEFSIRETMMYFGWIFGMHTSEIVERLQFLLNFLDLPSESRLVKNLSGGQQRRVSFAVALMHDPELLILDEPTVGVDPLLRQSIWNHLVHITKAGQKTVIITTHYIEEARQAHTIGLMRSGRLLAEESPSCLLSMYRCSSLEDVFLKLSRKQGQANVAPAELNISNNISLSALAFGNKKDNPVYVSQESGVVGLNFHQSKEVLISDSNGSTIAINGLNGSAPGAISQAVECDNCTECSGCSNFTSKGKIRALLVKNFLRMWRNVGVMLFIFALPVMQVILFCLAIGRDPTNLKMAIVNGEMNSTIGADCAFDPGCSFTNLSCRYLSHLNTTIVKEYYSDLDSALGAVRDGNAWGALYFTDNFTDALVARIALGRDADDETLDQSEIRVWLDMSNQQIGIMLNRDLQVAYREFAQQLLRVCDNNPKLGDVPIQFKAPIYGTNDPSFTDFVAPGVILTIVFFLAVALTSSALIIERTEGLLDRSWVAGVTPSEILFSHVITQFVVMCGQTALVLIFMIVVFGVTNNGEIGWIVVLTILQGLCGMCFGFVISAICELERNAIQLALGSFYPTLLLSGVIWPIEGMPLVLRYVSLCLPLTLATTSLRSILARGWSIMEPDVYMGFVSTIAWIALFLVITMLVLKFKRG

ABCH2 [2] = molecular target: T1, ABCH2; experiment: as above; type: biochemical; conditions: 120 uM deltamethrin, DMSO/ethanol, 1 mM ATP, MgCl2, Tris pH 8, 37 C, 15 min; empty-bacmid background subtracted; transport not shown directly
[3] = molecular target: ABCH2 transporter (ATP-Binding Cassette transporter from the H family) of Anopheles coluzzii (Anopheles coluzzii)

## Nc1ncnc2c1ncn2[C@@H]1O[C@H](COP(=O)(O)OP(=O)(O)OP(=O)(O)O)[C@@H](O)[C@H]1O [ATP]
ABCH2 [1]
  malachite green ATPase assay, Sf9 inverted membrane vesicles: indicate an ATP hydrolysis specific to ABCH2 expression

## CC1(C)[C@H](C(=O)O[C@H](C#N)c2cccc(Oc3ccccc3)c2)[C@@H]1C=C(Br)Br [deltamethrin]
ABCH2 [2]
  fold stimulation of basal ATPase activity at 120 uM: ~ 1.6 fold

## ABCH2 transporter (ATP-Binding Cassette transporter from the H family) of Anopheles coluzzii (natural protein)
[3]
  estimated basal rate of ATP hydrolysis of ABCH2 in inverted membrane vesicles of Sf9 cells expressing ABCH2 on its own (pmoles Pi/pmol ABCH2/minute): 178
